From patent publication US10752587B2, “Homobispiperidinyl derivatives as liver X receptor beta agonists, compositions and their use” (Merck Sharp & Dohme Corp., priority 2015, dated 2020)
Read-outs that look alike come from different tables or passages of the source.

Experiments:
[1] = target: T1, glutathione-S-transferase (GST) tagged LXRalpha LBD (ligand binding domain) (Homo sapiens, UniProt Q13133); test: LanthaScreen TR-FRET Liver X Receptor Coactivator Assay, co-activator recruitment to LXRalpha LBD; assay type: biochemical
T1 construct: purchased Invitrogen pv4655
T1 sequence (Q13133 209-447 limits assumed): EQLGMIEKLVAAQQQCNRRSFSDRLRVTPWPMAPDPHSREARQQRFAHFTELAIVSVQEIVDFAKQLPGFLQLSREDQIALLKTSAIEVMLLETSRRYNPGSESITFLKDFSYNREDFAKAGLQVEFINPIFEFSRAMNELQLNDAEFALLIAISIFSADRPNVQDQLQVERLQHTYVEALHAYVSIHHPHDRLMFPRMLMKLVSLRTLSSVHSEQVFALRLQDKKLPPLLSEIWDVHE
Method in brief: (§1)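 GST-tagged LBD added to test compound, then fluorescein-labelled coactivator peptide plus terbium anti-GST antibody; incubated at room temperature, TR-FRET read. Potency given as inflection point and efficacy as Emax relative to reference dual agonist T0901317.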

[2] = target: T2, glutathione-S-transferase (GST) tagged LXRbeta LBD (ligand binding domain) (Homo sapiens, UniProt P55055); test: LanthaScreen TR-FRET Liver X Receptor Coactivator Assay, co-activator recruitment to LXRbeta LBD; assay type: biochemical
T2 construct: purchased Invitrogen pv4658.pps
T2 sequence (P55055 222-460 limits assumed): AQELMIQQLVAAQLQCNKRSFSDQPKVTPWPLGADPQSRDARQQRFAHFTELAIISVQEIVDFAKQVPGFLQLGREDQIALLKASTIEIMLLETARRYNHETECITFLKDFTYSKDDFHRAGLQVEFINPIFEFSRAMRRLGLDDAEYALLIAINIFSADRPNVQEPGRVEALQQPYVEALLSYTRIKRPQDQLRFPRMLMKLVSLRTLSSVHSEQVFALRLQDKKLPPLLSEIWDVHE
Method in brief: as §1

[3] = efficacy at max dose, in relation to reference dual agonist T0901317, read-out: LXR alpha Activity @ max dose (%)
[4] = potency (Inflection Point, IP), co-activator recruitment to LXRalpha LBD, in relation to T0901317
[5] = efficacy at max dose, in relation to reference dual agonist T0901317, read-out: LXR beta Activity @ max dose (%)
[6] = potency (Inflection Point, IP), co-activator recruitment to LXRbeta LBD, in relation to T0901317, read-out: LXR beta IP
[7] = potency (Inflection Point, IP), co-activator recruitment to LXRalpha LBD, in relation to T0901317, read-out: LXR alpha IP

SMILES	Emax [1, 3] [%]	LXR alpha IP (nM) [1, 4]	Emax [2, 5] [%]	EC50 [2, 6] [nM]	EC50 [1, 7] [nM]	also measured
CN(C)C(=O)c1ccc(N2CCC(CC3CCN(C(=O)C4(c5ccccc5)CCC4)CC3)CC2)cc1Cl [Example 2-18, 2-chloro-N,N-dimethyl-4-[4-({1-[(1-phenylcyclobutyl)carbonyl]piperidin-4-yl}methyl)piperidin-1-yl]benzamide]	6	NO IP	46	151	–	–
CN(C)C(=O)c1ccc(N2CCC(CC3CCN(C(=O)C(O)(c4ccccn4)C4CC4)CC3)CC2)cc1Cl (stereo not shown) [Example 2-118, 2-chloro-4-[4-({1-[cyclopropyl (hydroxy)pyridin-2-ylacetyl]piperidin-4-yl}methyl)piperidin-1-yl]-N,N-dimethyl-benzamide]	–	NO IP	–	–	–	Emax ([1]; read-out: LXR alpha Activity @ max dose (%)): 11%; EC50 ([2]; LXR beta IP (nM), potency (Inflection Point, IP), co-activator recruitment to LXRbeta LBD, in relation to T0901317): 219 nM; Emax ([2]; read-out: LXR beta Activity @ max dose (%)): 68%
COc1cccc([C@@](O)(C(=O)N2CCC(CC3CCN(c4cnc(C(=O)N(C)C)c(Cl)c4)CC3)CC2)C(F)(F)F)c1 [Example 2-3, 3-chloro-N,N-dimethyl-5-[4-({1-[(2R)-3,3,3-trifluoro-2-hydroxy-2-(3-methoxyphenyl)propanoyl]piperidin-4-yl}methyl)piperidin-1-yl]pyridine-2-carboxamide]	6	NO IP	50	26	–	–
CCOc1cccc([C@@](O)(C(=O)N2CCC(CC3CCN(c4ccc(C(=O)N(C)C)c(C)c4)CC3)CC2)C(F)(F)F)c1 [Example 2-151, 4-[4-({1-[(2R)-2-(3-ethoxy-phenyl)-3,3,3-trifluoro-2-hydroxy-propanoyl]piperidin-4-yl}methyl)piperidin-1-yl]-N,N,2-trimethyl-benzamide]	4	NO IP	45	9	–	–
CN(C)C(=O)c1ccc(N2CCC(CC3CCN(C(=O)C4(c5ccccc5)CC4)CC3)CC2)cc1Cl [Example 2-9, 2-chloro-N,N-dimethyl-4-[4-({1-[(1-phenyl-cyclopropyl)carbonyl]piperidin-4-yl}methyl)piperidin-1-yl] benzamide]	0	NO IP	48	97	–	–
CN(C)C(=O)c1ccc(N2CCC(CC3CCN(C(=O)C(O)(c4cccs4)C(F)(F)F)CC3)CC2)cc1Cl (stereo not shown) [Example 2-37, 2-chloro-N,N-dimethyl-4-(4-{[1-(3,3,3-trifluoro-2-hydroxy-2-thiophen-2-ylpropanoyl)piperidin-4-yl]methyl}piperidin-1-yl)benzamide]	33	–	73	29	620	–
COc1cccc([C@](N)(C(=O)N2CCC(CC3CCN(c4ccc(C(=O)N(C)C)c(Cl)c4)CC3)CC2)C(F)(F)F)c1 [Example 2-119, 4-[4-({1-[(2S)-2-amino-3,3,3-trifluoro-2-(3-methoxy-phenyl)propanoyl]piperidin-4-yl}methyl)piperidin-1-yl]-2-chloro-N,N-dimethyl-benzamide]	11	NO IP	99	208	–	–
CN(C)C(=O)c1ccc(N2CCC(CC3CCN(C(=O)C4(c5ccccc5)CCCC4)CC3)CC2)cc1Cl [Example 2-10, 2-chloro-N,N-dimethyl-4-[4-({1-[(1-phenyl-cyclopentyl)carbonyl]piperidin-4-yl}methyl)piperidin-1-yl] benzamide]	0	NO IP	60	50	–	–
CN(C)C(=O)c1ccc(N2CCC(OC3CCN(C(=O)C(O)(c4cccc(C(F)(F)F)c4)C(F)(F)F)CC3)CC2)cc1Cl (stereo not shown) [Example 2-25, 2-chloro-N,N-dimethyl-4-{4-[(1-{3,3,3-trifluoro-2-hydroxy-2-[3-(trifluoromethyl)phenyl]propanoyl}piperidin-4-yl)oxy]piperidin-1-yl}benzamide]	26	–	89	28	695	–
CN(C)C(=O)c1ccc(N2CCC(CC3CCN(C(=O)[C@](O)(c4cccc(Cl)c4)C(F)(F)F)CC3)CC2)cc1 [Example 2-131, 4-[4-({1-[(2R)-2-(3-chloro-phenyl)-3,3,3-trifluoro-2-hydroxy-propanoyl]piperidin-4-yl}methyl)piperidin-1-yl]-N,N-dimethyl-benzamide]	10	NO IP	59	53	–	–
CC(C)c1cccc([C@@](O)(C(=O)N2CCC(CC3CCN(c4ccc(C(N)=O)c(Cl)c4)CC3)CC2)C(F)(F)F)c1 [Example 12-10, 2-chloro-4-{4-[(1-{(2R)-3,3,3-trifluoro-2-hydroxy-2-[3-(1-methylethyl)phenyl]-propanoyl}piperidin-4-yl)methyl]piperidin-1-yl}benzamide]	–	–	–	–	–	EC50 ([1]; co-activator recruitment to GST-LXRalpha LBD, TR-FRET, read-out: LXR alpha IP (Inflection Point, potency)): 85 nM; Emax ([1]; efficacy in relation to reference dual agonist T0901317, read-out: LXR alpha Activity @ max dose): 26%; EC50 ([2]; co-activator recruitment to GST-LXRbeta LBD, TR-FRET, read-out: LXR beta IP (Inflection Point, potency)): 8 nM; Emax ([2]; efficacy in relation to reference dual agonist T0901317, read-out: LXR beta Activity @ max dose): 51%

More lines, main results first:

Emax [1, 3] [%]	LXR alpha IP (nM) [1, 4]	Emax [2, 5] [%]	EC50 [2, 6] [nM]	EC50 [1, 7] [nM]	SMILES	also measured
45	–	118	31	571	CN(C)C(=O)c1ccc(N2CCC(CC3CCN(C(=O)C4(c5ccccc5Cl)CC4)CC3)CC2)nc1Cl [Example 7-53, 2-chloro-6-{4-[(1-{[1-(2-chlorophenyl)cyclopropyl]carbonyl}piperidin-4-yl)methyl]piperidin-1-yl}-N,N-dimethylpyridine-3-carboxamide]	–
39	–	102	30	424	CNC(=O)c1ccc(N2CCC(CC3CCN(C(=O)[C@](O)(c4cccc(OC)c4)C(F)(F)C(F)(F)F)CC3)CC2)nc1Cl [Example 7-138, 2-chloro-N-methyl-6-[4-({1-[(2R)-3,3,4,4,4-pentafluoro-2-hydroxy-2-(3-methoxyphenyl)butanoyl]piperidin-4-yl}methyl)piperidin-1-yl]pyridine-3-carboxamide]	–
23	–	71	153	2180	Cc1cc(N2CCC(CC3CCN(C(=O)[C@](O)(c4ccccc4)C(F)(F)F)CC3)CC2)ncc1C(=O)N(C)C [Example 7-3, N,N,4-trimethyl-6-[4-({1-[(2R)-3,3,3-trifluoro-2-hydroxy-2-phenylpropanoyl]piperidin-4-yl}methyl)piperidin-1-yl]pyridine-3-carboxamide]	–
2	NO IP	18	30000	–	CN(C)C(=O)c1ccc(N2CCC(OC3CCN(C(=O)N4CC(O)(C(F)(F)F)C4)CC3)CC2)cc1Cl [Example 8-1, 2-chloro-4-(4-((1-(3-hydroxy-3-(trifluoromethyl)azetidine-1-carbonyl)piperidin-4-yl)oxy)piperidin-1-yl)-N,N-dimethylbenzamide]	–
50	–	76	31	516	O=C(c1ccc(N2CCC(OC3CCN(C(=O)[C@](O)(c4ccccc4)C(F)(F)F)CC3)CC2)cc1Cl)N1CCC[C@H]1CO [Example 4-7, (2R)-3-(4-{[1-(3-chloro-4-{[(2S)-2-(hydroxy-methyl)pyrrolidin-1-yl]carbonyl}phenyl)piperidin-4-yl]oxy}piperidin-1-yl)-1,1,1-trifluoro-3-oxo-2-phenylpropan-2-ol]	–
0	NO IP	26	3	–	COc1cc(Cl)cc([C@@](O)(C(=O)N2CCC(CC3CCN(c4ccc(C(=O)N(C)C)c(Cl)n4)CC3)CC2)C(F)(F)F)c1 [Example 7-107, 2-chloro-6-[4-({1-[(2R)-2-(3-chloro-5-methoxyphenyl)-3,3,3-trifluoro-2-hydroxypropanoyl]piperidin-4-yl}methyl)piperidin-1-yl]-N,N-dimethylpyridine-3-carboxamide]	–
7	NO IP	106	92	–	CCOc1cccc([C@@](O)(C(=O)N2CCC(CC3(C)CCN(c4ccc(C(=O)N(C)C)c(OC)n4)CC3)CC2)C(F)(F)F)c1 [Example 7-24]	–
28	–	64	183	688	CN(C)CCNC(=O)c1ccc(N2CCC(CC3CCN(C(=O)[C@](O)(c4ccccc4)C(F)(F)F)CC3)CC2)cc1Cl [Example 4-16, 2-chloro-N-[2-(dimethylamino)ethyl]-4-[4-({1-[(2R)-3,3,3-trifluoro-2-hydroxy-2-phenylpropanoyl]piperidin-4-yl}methyl)piperidin-1-yl]benzamide]	–
